Measured values reported in the CheMixHub viscosity set.

Assay: xn = mol fraction of the nth substance listed

CCCCO + O
Details | viscosity [mPa·s]
293.15 K, 100 kPa, x1 = 0.02 | 1.378
293.15 K, 100 kPa, x1 = 0.5485 | 3.301
293.15 K, 101 kPa, x1 = 0.005 | 1.077
293.15 K, 101 kPa, x1 = 0.01 | 1.155
293.15 K, 101 kPa, x1 = 0.015 | 1.232
298.15 K, 101 kPa, x1 = 0.005 | 0.947
298.15 K, 101 kPa, x1 = 0.01 | 1.003
298.15 K, 101 kPa, x1 = 0.015 | 1.058
298.15 K, 101 kPa, x1 = 0.69 | 2.598
298.15 K, 101 kPa, x2 = 0.0398 | 2.622
298.15 K, 101 kPa, x2 = 0.0784 | 2.618
298.15 K, 101 kPa, x2 = 0.1202 | 2.619
298.15 K, 101 kPa, x2 = 0.1424 | 2.62
298.15 K, 101 kPa, x2 = 0.163 | 2.626
298.15 K, 101 kPa, x2 = 0.1955 | 2.634
298.15 K, 101 kPa, x2 = 0.2265 | 2.647
298.15 K, 101 kPa, x2 = 0.2719 | 2.679
298.15 K, 101.3 kPa, x1 = 0.003 | 0.9421
298.15 K, 101.3 kPa, x1 = 0.006 | 0.994
298.15 K, 101.3 kPa, x1 = 0.009 | 1.047
298.15 K, 101.3 kPa, x1 = 0.012 | 1.1
298.15 K, 101.33 kPa, x1 = 0.0017 | 0.921
298.15 K, 101.33 kPa, x1 = 0.00297 | 0.941
298.15 K, 101.33 kPa, x1 = 0.00364 | 0.949
298.15 K, 101.33 kPa, x1 = 0.00491 | 0.97
298.15 K, 101.33 kPa, x1 = 0.00559 | 0.981
298.15 K, 101.33 kPa, x1 = 0.0081 | 1.021
298.15 K, 101.33 kPa, x1 = 0.00972 | 1.048
298.15 K, 101.33 kPa, x1 = 0.0124 | 1.096
298.15 K, 101.33 kPa, x1 = 0.0136 | 1.114
298.15 K, 101.33 kPa, x1 = 0.0151 | 1.141
298.15 K, 101.33 kPa, x1 = 0.0166 | 1.166
298.15 K, 101.33 kPa, x1 = 0.0179 | 1.185
303.15 K, 101 kPa, x1 = 0.005 | 0.842
303.15 K, 101 kPa, x1 = 0.01 | 0.883
303.15 K, 101 kPa, x1 = 0.015 | 0.93
303.15 K, 101.33 kPa, x1 = 0.013 | 0.968
303.15 K, 101.33 kPa, x2 = 0.095 | 2.236
303.15 K, 101.33 kPa, x2 = 0.2526 | 2.272
303.15 K, 101.33 kPa, x2 = 0.4385 | 2.42
308.15 K, 101 kPa, x1 = 0.005 | 0.758
308.15 K, 101 kPa, x1 = 0.01 | 0.794
308.15 K, 101 kPa, x1 = 0.015 | 0.841
308.15 K, 101 kPa, x2 = 0.0398 | 2.032
308.15 K, 101 kPa, x2 = 0.0784 | 2.022
308.15 K, 101 kPa, x2 = 0.1202 | 2.017
308.15 K, 101 kPa, x2 = 0.1424 | 2.016
308.15 K, 101 kPa, x2 = 0.163 | 2.017
308.15 K, 101 kPa, x2 = 0.1955 | 2.024
308.15 K, 101 kPa, x2 = 0.2265 | 2.027
313.15 K, 101 kPa, x1 = 0.005 | 0.682
313.15 K, 101 kPa, x1 = 0.01 | 0.712
313.15 K, 101 kPa, x1 = 0.015 | 0.746
318.15 K, 101 kPa, x1 = 0.005 | 0.62
318.15 K, 101 kPa, x1 = 0.01 | 0.638
318.15 K, 101 kPa, x1 = 0.015 | 0.662
318.15 K, 101 kPa, x2 = 0.0412 | 1.597
318.15 K, 101 kPa, x2 = 0.0733 | 1.588
318.15 K, 101 kPa, x2 = 0.1101 | 1.581
318.15 K, 101 kPa, x2 = 0.1458 | 1.576
318.15 K, 101 kPa, x2 = 0.1755 | 1.571
318.15 K, 101 kPa, x2 = 0.2129 | 1.578
323.15 K, 100 kPa, x1 = 0.02 | 0.668
323.15 K, 100 kPa, x1 = 0.5485 | 1.447
323.15 K, 101 kPa, x1 = 0.005 | 0.566
323.15 K, 101 kPa, x1 = 0.01 | 0.58
323.15 K, 101 kPa, x1 = 0.015 | 0.602

C[C@H](CCC(=O)[O-])[C@H]1CC[C@H]2[C@@H]3[C@H](O)C[C@@H]4C[C@H](O)CC[C@]4(C)[C@H]3C[C@H](O)[C@]12C.[Na+] + O
viscosity [mPa·s], 101 kPa
Details | x1 = 4.223e-05 | x1 = 8.385e-05 | x1 = 0.0001682 | x1 = 0.0003376 | x1 = 0.0004225 | x1 = 0.0005082 | x1 = 0.0006801 | x1 = 0.0008535
293.15 K | – | – | – | – | – | – | 1.082 | 1.105
298.15 K | – | 0.8984 | – | 0.9231 | – | 0.9405 | 0.9598 | 0.9782
303.15 K | 0.801 | 0.8044 | 0.8115 | 0.8262 | 0.8337 | – | 0.8579 | 0.875
308.15 K | – | 0.7264 | 0.7329 | 0.7454 | 0.7527 | 0.7593 | 0.774 | 0.7887
313.15 K | – | – | – | 0.6763 | 0.6826 | – | 0.7016 | 0.7154
